Source: patent US5858700A, “Process for the isolation and purification of lycopene crystals” (Kemin Foods, LC, priority 1997, dated 1999)

Tests used:
[1] = test system: rat; settings: oral; cited from earlier work
[2] = Pigment (lycopene) stability in freeze-dried tomato skins on 6-day storage at 30° C.; type: physicochemical; settings: 6 days at 30° C., hexanes extract, spectrophotometric
Text: Wet tomato skins from Siagra Co., Chengmai, Thailand (8.3 kg of the 50 lb batch used in Example 1) were freeze-dried for three days in a tray freeze-dryer (FTS Systems Inc., Stone Ridge N.Y.) to obtain freeze-dried tomato skins (2.08 kg, 24.3 percent moisture) from which five samples were taken.
The first sample of freeze-dried tomato skins was ground in a rotary meat grinder, which separated the seeds from the tomato skins. Further separation using sieves and air separation produced samples that were substantially only from the skins or the seeds of the tomatoes. The skin and seed samples were ground separately in a CYCLOTEC TECATOR™ mill (Fisher Scientific, Pittsburgh Pa.) fitted with a 0.5 mm screen, and found to contain 1328 milligrams of pigment per kilogram of tomato skins and 97 milligrams of pigment per kilogram of tomato seeds. The seeds thus contribute little to the total extractable pigment yet constitute a large portion of the total sample mass.
A second sample was left in flake form, and was dried for 6 days at 30° C. A third sample was ground in a WILEY™ mill (Fisher Scientific, Pittsburgh Pa.) fitted with a 2 mm screen and dried for 6 days at 30° C. A fourth sample was ground in a WILEY™ mill fitted with a 1 mm screen and dried for 6 days at 30° C. A fifth sample was ground in a CYCLOTEC™ mill fitted with a 0.5 mm screen and dried for 6 days at 30° C.
At the end of the treatment, all of the samples were extracted with hexanes, analyzed spectrophotometrically, and compared with the amount of lycopene present in the freeze-dried flakes before the 6-day heat treatment. The samples ground in the CYCLOTEC™ mill (<0.5 mm particles) and the WILEY™ mill (<1 mm and <2 mm particles) had more of the oxidized lycopene content than the non-ground (flake) sample: 36, 33, 36 and 25 percent pigment losses, respectively. However, none of the samples after 6 days had over 75 percent of the lycopene that was present before the treatment.

[3] = test system: prostate cancer; settings: consumption of lycopene; Giovannucci et al. 1995; cited from earlier work

SMILES	LD50 [1]	other results
CC(C)=O [Acetone]	10.7 mL/kg	–
ClC(Cl)Cl [Chloroform]	2.18 mL/kg	–
CCOC(C)=O [Ethyl Acetate]	11.3 mL/kg	–
CC(O)CO (stereo not shown) [Propylene Glycol, 1,2-propanediol]	25 mL/kg	–
c1ccncc1 [Pyridine]	1.58 mL/kg	–
CC(C)=CCC/C(C)=C/C=C/C(C)=C/C=C/C(C)=C/C=C/C=C(C)/C=C/C=C(C)/C=C/C=C(\C)CCC=C(C)C [lycopene, .psi.,.psi.-carotene]	–	pigment losses ([2]; CYCLOTEC mill, <0.5 mm particles): 36%; pigment losses ([2]; WILEY mill, <1 mm particles): 33%; pigment losses ([2]; WILEY mill, <2 mm particles): 36%; pigment losses ([2]; non-ground (flake) sample): 25%; risk of prostate cancer [3]: reduced risk of prostate cancer
